Experimental findings from ChEMBL document CHEMBL3763057 (J Med Chem, 2016) are described below.

Molecules are shown by their SMILES. pIC50: −log10 of the molar value. Activity calls are given as the source filed them. The rule behind the calls is not given here.

In one data set the target is Beta-secretase 1 (Homo sapiens, UniProt P56817). The data set can be described thus: Inhibition of human recombinant BACE1 using M-2420 as substrate preincubated for 1 hr followed by substrate addition incubated for 15 mins by FRET assay.
Sequence of Beta-secretase 1 (P56817 whole entry): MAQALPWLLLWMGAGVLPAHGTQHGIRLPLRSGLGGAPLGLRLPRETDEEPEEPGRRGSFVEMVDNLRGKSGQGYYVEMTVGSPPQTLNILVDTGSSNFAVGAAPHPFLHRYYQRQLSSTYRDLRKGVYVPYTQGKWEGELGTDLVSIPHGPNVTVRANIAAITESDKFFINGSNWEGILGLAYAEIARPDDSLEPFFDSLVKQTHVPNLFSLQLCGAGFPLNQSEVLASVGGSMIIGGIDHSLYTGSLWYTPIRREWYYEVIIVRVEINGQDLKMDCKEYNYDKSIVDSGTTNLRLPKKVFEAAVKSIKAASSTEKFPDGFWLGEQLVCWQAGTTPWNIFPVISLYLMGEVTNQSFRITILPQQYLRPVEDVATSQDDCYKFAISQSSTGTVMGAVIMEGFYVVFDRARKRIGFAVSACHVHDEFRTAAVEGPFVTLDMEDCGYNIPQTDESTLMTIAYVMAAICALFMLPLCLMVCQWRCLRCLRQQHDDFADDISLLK
For data set [1], the target named is Glycogen synthase kinase-3 beta (Homo sapiens, UniProt P49841). The experiment in a line: Inhibition of human recombinant GSK3-beta using prephosphorylated polypeptide as substrate incubated for 30 mins by Glo-type luminescence assay.
Sequence of Glycogen synthase kinase-3 beta (P49841 whole entry): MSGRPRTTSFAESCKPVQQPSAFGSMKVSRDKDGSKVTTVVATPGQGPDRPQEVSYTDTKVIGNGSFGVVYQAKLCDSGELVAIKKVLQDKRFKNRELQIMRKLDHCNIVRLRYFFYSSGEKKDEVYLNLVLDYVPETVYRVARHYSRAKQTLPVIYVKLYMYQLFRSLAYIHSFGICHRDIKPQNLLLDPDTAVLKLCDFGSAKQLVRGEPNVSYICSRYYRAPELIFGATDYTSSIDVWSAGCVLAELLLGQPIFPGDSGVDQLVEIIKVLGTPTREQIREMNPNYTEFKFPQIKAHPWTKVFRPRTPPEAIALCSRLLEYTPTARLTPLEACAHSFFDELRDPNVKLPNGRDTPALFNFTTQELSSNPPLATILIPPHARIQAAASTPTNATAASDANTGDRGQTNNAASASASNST
The nature of data set [2]: Permeability of the compound by PAMPA-BBB assay. The note with it: read-out: permeability. It is filed as ADME.
Data set [3] is described as follows: Chemical stability of the compound in phosphate and borate buffer at pH 7.4 and 9.2 incubated for 3 days by RP-HPLC analysis. It is filed as physicochemical. The note with it: pH 7.4, 72 h.
For data set [4], the system named is T67. The experiment in a line: Neuroprotective effect in human T67 cells assessed as inhibition of TBH-induced ROS formation at 10 uM after 30 mins by DCFH-DA fluorescent probe-based spectrofluorimetric analysis. In kind it is functional, cell-based.
The test system of data set [5] is T67. The data set can be described thus: Neuroprotective effect in human T67 cells assessed as increase in NQO1 activity using DCIP as substrate. It is filed as functional, cell-based.
Data set [6] in a line: Cytotoxicity against human T67 cells at 10 uM after 24 hrs by MTT assay. The note with it: t67, 24 h. It is filed as cell-based.
Data set [7] is described as follows: Cytotoxicity against human T67 cells up to 20 uM after 24 hrs by MTT assay. It is filed as cell-based. As to conditions: t67, 24 h. In general terms: Tetrazolium dyes change colour on reduction, which living cells bring about.
A short description of data set [8]: Chemical stability of the compound in phosphate and borate buffer assessed as formation of degradation product at pH 7.4 and 9.2 incubated for 3 days by RP-HPLC analysis. It is filed as physicochemical. The note with it: pH 7.4, 72 h.
Data set [9] in a line: Cytotoxicity against human T67 cells at 20 uM after 24 hrs by MTT assay. The note with it: t67, 24 h. It is filed as cell-based.

In general, pIC50 refers to the negative decadic logarithm of the IC50, by convention in mol/L. Regarding `COc1ccc(/C=C/C(=O)/C=C(O)/C=C/c2ccc(OC)cc2)cc1`, the pIC50 on Beta-secretase 1 is 5.78; in data set [1], 6.28. Moreover, the Papp in data set [2] is 2.8 ×10⁻⁶ cm/s. Also, the Stability entry in data set [3] is “Stable”. Also, the result in the data set with T67 [4] was inactive. The result with T67 [5] was Active. Moreover, the Activity entry in data set [6] is on record as “Non-toxic”.
Turning to `O=C(/C=C(O)/C=C/c1ccc(OCc2ccc(F)cc2)cc1)/C=C/c1ccc(OCc2ccc(F)cc2)cc1`, the negative logarithm of the IC50 (pIC50) on Beta-secretase 1 was 5.98; in [1], 4.89.
For `O=C(/C=C(O)/C=C/c1ccc(OCc2ccc(F)cc2F)cc1)/C=C/c1ccc(OCc2ccc(F)cc2F)cc1` the same measures were 6.40 and 5.02.
Regarding `COc1cc(/C=C/C(O)=C/C(=O)/C=C/c2ccc(C)cc2)ccc1O`, the pIC50 on Beta-secretase 1 was 6.85; in [1], 5.68. For the same molecule, the Papp in data set [2] came out at 8.2 ×10⁻⁶ cm/s. Besides, in the data set on T67 [4], the result was inactive. Further, the outcome in the data set with T67 [5] was Active. In addition, in [7], the Activity entry is recorded as “Non-toxic”.
As for `COc1ccc(/C=C/C(=O)CC(=O)/C=C/c2ccc(OC)cc2)cc1`, the pIC50 at Beta-secretase 1 is < 5.30; in [1], 4.82. Also, the Stability result in [8] was “Unstable”.
Consider `COc1cc(/C=C/C(=O)CC(=O)/C=C/c2ccc(O)c(OC)c2)ccc1O` [CURCUMIN], for which the negative logarithm of the IC50 (pIC50) in data set [1] is 4.75. In data set [2], the Papp is 2.5 ×10⁻⁶ cm/s. The result in the data set on T67 [5] was Active. The Activity result in data set [7] is recorded as “Non-toxic”.
As for `O=C(/C=C(O)/C=C/c1ccc(OCc2cccc(F)c2)cc1)/C=C/c1ccc(OCc2cccc(F)c2)cc1`, the negative-log IC50 (pIC50) at Beta-secretase 1 was 5.97; in data set [1] it was 4.77.
Turning to `O=C(/C=C(O)/C=C/c1ccc(O)cc1)/C=C/c1ccc(O)cc1`, in [1], the pIC50 was 5.08. Further, in data set [2], the Papp stood at 7.8 ×10⁻⁶ cm/s. Moreover, the outcome in the data set on T67 [4] was inactive. Besides, the outcome in the data set on T67 [5] was Active. The Activity entry in data set [9] is on record as “Toxic”; in [6] it was “Non-toxic”.
Consider `O=C(/C=C/c1ccc(OCc2ccc(F)cc2F)cc1)CC(=O)/C=C/c1ccc(OCc2ccc(F)cc2F)cc1`, for which the negative-log IC50 (pIC50) on Beta-secretase 1 was 6.00; in [1], 5.04.
For `O=C(/C=C/c1ccc(OCc2ccccc2)cc1)CC(=O)/C=C/c1ccc(OCc2ccccc2)cc1` the same measures were 5.22 and 5.25.
As for `O=C(/C=C(O)/C=C/c1ccc(OCc2ccccc2)cc1)/C=C/c1ccc(O)cc1`, the negative-log IC50 (pIC50) at Beta-secretase 1 was 5.57; in [1] it was 5.70. Besides, the outcome with T67 [4] was inactive. The outcome in the data set with T67 [5] was Active. For the same molecule, in data set [7], the Activity result was “Toxic”.
With `COc1cc(/C=C/C(O)=C/C(=O)/C=C/c2ccc(OCc3ccccc3)cc2)ccc1O`, the figures for the pIC50 (on Beta-secretase 1; in data set [1]) were 6.01 and 6.05, respectively. The Papp in [2] came to 7.7 ×10⁻⁶ cm/s. The result with T67 [4] and with T67 [5] was Active. In addition, the Activity entry in [7] was “Non-toxic”.
Regarding `O=C(/C=C(O)/C=C/c1ccc(OCc2cc(F)cc(F)c2)cc1)/C=C/c1ccc(OCc2cc(F)cc(F)c2)cc1`, the pIC50 was 6.41 at Beta-secretase 1 and 5.08 in [1].
For `O=C(/C=C/c1ccc(OCc2cc(F)cc(F)c2)cc1)CC(=O)/C=C/c1ccc(OCc2cc(F)cc(F)c2)cc1` the same measures were 6.14 and 5.02.
Consider `O=C(/C=C(O)/C=C/c1ccc(OCc2ccccc2)cc1)/C=C/c1ccc(OCc2ccccc2)cc1`, for which the pIC50 at Beta-secretase 1 is 7.40; in data set [1] it was 5.60. In [2], the Papp was found to be 3.6 ×10⁻⁶ cm/s. Moreover, the outcome with T67 [4] and in the data set on T67 [5] was Active. Moreover, the Activity entry in data set [7] was “Non-toxic”.
Consider `COc1ccc(/C=C/C(=O)/C=C(O)/C=C/c2ccc(OCc3ccccc3)cc2)cc1`, for which the pIC50 at Beta-secretase 1 was 5.64; in data set [1], 5.56. Moreover, the Papp in data set [2] is 7 ×10⁻⁶ cm/s. Further, the outcome in the data set with T67 [4] was inactive. For the same molecule, the outcome in the data set with T67 [5] was Active. The Activity entry in data set [6] and in data set [7] was “Non-toxic” each time.
